{
  "source": "patent US12582616B2",
  "about": "“Molecular targets for modulation of dissociative and associative states” (The Board of Trustees of the Leland Stanford Junior …, priority 2020, dated 2026)",
  "key": {"[1]": {"tested_on": "retrosplenial cortex (RSP)", "test": "Two-photon imaging of retrosplenial cortex", "format": "in vivo, mouse", "method": "Mice were anesthetized with isoflurane and the skull above retrosplenial cortex was removed and replaced with a 7 mm circular glass coverslip. For layer 1 experiments, Thy1GcaMP6s mice were used. For layer 2/3 experiments, Cux2-CreER; Ai148 mice were used (tamoxifen dissolved in corn oil was injected intraperitoneally at 0.1 mg/g at least 2 weeks prior to imaging). For layer 5 experiments, Rbp4-Cre mice were injected locally in retrosplenial with 800 nL AAVdj-Ef1a-DIO-GCaMP6f (titer 5E12) at stereotactic coordinates (−3AP, 0.5ML, −0.6DV). Mice were given >=1 week to recover before imaging. Awake, head-fixed imaging was performed on a standard two photon microscope (NeuroLabWare, Los Angeles, CA). A 16x 0.8 NA Nikon objective was immersed in clear ultrasound gel for imaging (Aquasonic, Parker Laboratories); frame rate of 30 Hz. Although we observed oscillations in RSP with 50 mg/kg, we were concerned that 50 mg/kg may be too low a dose to sensitively detect a potentially weaker signal in visual cortex or layer 2/3, and so we used 80 mg/kg in these experiments.\nTwo-photon tiff stack videos were registered to the average image using the TurboReg ImageJ plug-in using rigid body transformations. […] Contaminating neuropil signal was estimated from an annulus surrounding each soma mask and removed using the function F(t)=Fsoma(t)-0.3*Fneuropil(t), where Fsoma(t) is the somatic DF/F and Fneuropil(t) is the DF/F from an annulus 4 pixels wide surrounding each soma mask. The resulting traces were detrended and z-scored. The full frame fluorescence (used for quantifying layer 1 neuropil oscillations) was computed by summing all of the pixels in each frame on each time point, and then computing DF/F the same way, with no neuropil subtraction step.\nEach trace (corresponding to either a fiber photometry signal, a cellular two-photon signal, a widefield regional centroid, a widefield pixel, an sEEG trace, or a smoothed spike rate Neuropixels trace) was z-scored, and the power spectral density (PSD) was then estimated using Welch's method (pwelch( ) in Matlab), with a window size of 10*fs (15*fs for human sEEG) where fs is the sampling rate of the signal. The average band power within a specified band (i.e. 1-3 Hz) was then computed by integrating the PSD estimate (bandpower in Matlab). For displaying the traces of individual cells, traces were each zscored by subtracting the mean value of the trace (across the whole recorded time window) and dividing by the standard deviation of the trace. Unless otherwise indicated, the PSD was computed across the time window from minutes 10 to 11 post-injection."}, "humans": {"tested_on": "humans", "conditions": "human; cited from earlier work"}, "mice [2]": {"tested_on": "mice", "test": "Tail suspension test", "format": "in vivo, mouse", "method": "Tail Suspension Test: Mouse activity was recorded using a 60 Hz web camera. Struggling activity was quantified for minutes 2-10. […] Illumination began 30 seconds before tails were secured with tape and suspended from the beam. Mice were excluded if they climbed on their own tails."}, "mice [3]": {"tested_on": "mice", "test": "Resident-intruder social interaction assay", "format": "in vivo, mouse", "conditions": "ketamine, both channel-knockouts vs wild-type", "method": "Social Interaction Assay: Resident-intruder social interaction was recorded for two minutes. Interactions were defined as close physical proximity behaviors, including sniffing, touching, and following. […] Illumination began 30 seconds before the same-sex intruder mouse was introduced."}, "mice [4]": {"tested_on": "mice", "test": "Open field test", "format": "in vivo, mouse", "conditions": "5 min session, compared with saline", "from_the_text": "Open Field Test: Mice were placed in an evenly illuminated 50 cm×50 cm open field test box. Mouse position was captured using a webcam and Viewer software (Biobserve)."}, "[5]": {"tested_on": "retrosplenial cortex (RSP)", "test": "Fiber photometry and widefield imaging of RSP, dose comparison", "format": "in vivo, mouse", "from_the_text": "A 405 nm and 470 nm LED illumination (Thorlabs) was combined (425 nm longpass, Thorlabs DMLP425) and coupled into a fiber optic patch cord (400 μm diameter, 0.48 NA, Doric Lenses) using a longpass dichroic (505 nm, Thorlabs DMLP505) and a fixed-focused coupler/collimator with a standard FC connector (F240FC-A, NA 0.51, f=7.9 mm)^47,48. Each illumination channel was frequency modulated using the sync output from a lock-in amplifier (SR810 DSP, Stanford Research Systems). GCaMP fluorescence was collected through the same patchcord and delivered through a bandpass emission filter (Semrock, FF01-520/35) onto a NewFocus 2151 femtowatt silicon photoreceiver (Newport, DC Low mode). […]\nAnalysis was performed using custom MATLAB (MathWorks) scripts. […] For quantification, activity traces were extracted from points centered in five cortical regions (visual, somatosensory, parietal, motor, retrosplenial) on the left hemisphere of the brain. […]\nEach trace (corresponding to either a fiber photometry signal, a cellular two-photon signal, a widefield regional centroid, a widefield pixel, an sEEG trace, or a smoothed spike rate Neuropixels trace) was z-scored, and the power spectral density (PSD) was then estimated using Welch's method (pwelch( ) in Matlab), with a window size of 10*fs (15*fs for human sEEG) where fs is the sampling rate of the signal. […]"}, "mice [6]": {"tested_on": "mice", "test": "Hot plate test", "protocol": "Hot Plate Test: Mice were placed on the hot plate (Bioseb), which was set to 55° C. and surrounded by a clear circular perimeter. Mouse activity was recorded using two cameras from different angles. The experiment ended when the mouse jumped to escape or 90 seconds had elapsed. Care was taken to clean and dry the hot plate apparatus between animals. For optogenetic experiments, mice were connected to patch cords and then returned to a holding cage. Illumination began 30 seconds before mice were placed on the hot plate."}, "mouse": {"tested_on": "mouse", "conditions": "cited from earlier work"}, "[7]": {"tested_on": "brain regions correlated with RSP", "test": "Simultaneous recording from four Neuropixels probes with i.p. drug delivery", "protocol": "Mice were anesthetized with isoflurane, carefully leveled in a stereotaxic apparatus and their scalp and periosteum were removed. A 3% hydrogen peroxide in saline solution was used to clean the surface of the skull. A custom stainless steel headbar was leveled on the skull and attached using clear dental cement. After the cement had dried, targeted probe entry sites were stereotaxically marked on the cement layer with a permanent marker (Day 1: “mPFC”, 2.3AP, 0.6ML; “somatosensory”, −0.7AP, −4.0ML; “retrosplenial”, −2AP, −1 ML; “subiculum”, −3.5AP, 2.14ML; Day 2: “OFC”: 2.5AP, 1.5ML; “mPFC”: 2.3AP, −0.6ML; “retrosplenial”, −2AP, 1ML; “thalamus”, −1.5AP, −1.7ML). In part, they were selected to cover areas with known connectivity to the retrosplenial cortex. A 2 mm long insulated platinum-iridium wire was implanted centrally over the cerebellum, with the last several hundred microns bared to serve as an electrical reference.\nMice were acclimated to head fixation and the recording rig over several days before recording. Several hours before recording, mice were anesthetized for approximately 30 minutes each while small 1 mm craniotomies were made over four pre-marked areas. Craniotomies were kept clean of bone fragments and made such that bleeding was minimized. The skull was covered with a pool of saline and with Quik-Cast to protect and keep moist craniotomies before recording. Mice recovered in their homecages before recording. Immediately prior to recording set up, mice were very briefly anesthetized with isoflurane and implanted with an IV catheter system (BD Saf-T-Intima Closed IV Catheter System: 22G×3/4′, containing an integrated Y adaptor and safety lock) to their intraperitoneal cavity and affixed with glue. […] While still anesthetized, mice were headfixed and tubing was secured stably to a custom mouse holder by tape. Quik-Cast was removed from the skull, and craniotomies were briefly cleaned before being submerged in a pool of saline. […] The four acquisitions were synchronized using a common squarewave signal recorded for all probes and aligned to the nearest pulse edge. […]"}, "[8]": {"tested_on": "retrosplenial cortex (RSP)", "test": "Widefield imaging of cortical activity in GCaMP6s mice", "description": "We recorded multiregional neuronal activity by leveraging widefield microscopy, a cleared skull preparation, and atlas registration in GCaMP6s-expressing mice (FIGS. 1A-1C)^6,8,15.\nAs described^8, mice were anesthetized with isoflurane, the scalp was removed, the skull cleaned and dried, and a custom head-plate was cemented to contacts over the cerebellum and in front of the olfactory bulb. The skull was then covered in a thin layer of cyanoacrylate glue (Apollo 2000, Cyberbond), clear dental acrylic (Ortho-Jet, Lang Dental), and clear nail polish (Electron Microscopy Services). […] (0.1 mg/kg) was injected subcutaneously for pain management. […] Imaging was performed on a custom-built fluorescence microscope designed for high light collection efficiency and large field of view. […] Alternating 410 nm and 488 nm illumination for non-Ca^2+ dependent artifact removal was controlled using a microcontroller (Arduino) slaved to the frame output trigger of the camera.\nAnalysis was performed using custom MATLAB (MathWorks) scripts. Widefield imaging videos were registered to a 2D top-projection atlas generated from the annotated Allen Brain Atlas volume, version CCFv2, in MATLAB (MathWorks), using an affine transformation computed from four manually selected control points. Each video was DF/F normalized, using the median for each pixel over the entire time series as F. The 410 nm channel was then temporally smoothed using a moving average (width=400 ms). The smoothed 410 nm DF/F signal for each pixel was regressed onto the 488 nm DF/F signal for the corresponding pixel, and the regression coefficients were used to scale the 410 nm channel to the 488 nm channel. This scaled 410 nm DF/F signal was then subtracted from the 488 nm DF/F signal to produce a normalized signal for each pixel. For quantification, activity traces were extracted from points centered in five cortical regions (visual, somatosensory, parietal, motor, retrosplenial) on the left hemisphere of the brain. The video data was Gaussian smoothed spatially (radius=2 pixels).\nEach trace (corresponding to either a fiber photometry signal, a cellular two-photon signal, a widefield regional centroid, a widefield pixel, an sEEG trace, or a smoothed spike rate Neuropixels trace) was z-scored, and the power spectral density (PSD) was then estimated using Welch's method (pwelch( ) in Matlab), with a window size of 10*fs (15*fs for human sEEG) where fs is the sampling rate of the signal. The average band power within a specified band (i.e. 1-3 Hz) was then computed by integrating the PSD estimate (bandpower in Matlab). […] Unless otherwise indicated, the PSD was computed across the time window from minutes 10 to 11 post-injection."}, "[9]": {"conditions": "50 mg/kg ketamine, control mice of knockout experiment"}},
  "note": "“Also recorded” adds a separate entry of the source.",
  "data": [
    {"smiles": "CNC1(c2ccccc2Cl)CCCCC1=O", "note": "(centres unmarked) [ketamine]", "values": [
      {"measurement": "oscillation and population synchrony in layer 2/3 RSP neurons", "setting": "[1]; Cux2-CreER mice, after ketamine", "result": "neither oscillating neurons nor population synchrony were observed"},
      {"measurement": "synchronous activity in layer 5 RSP neurons", "setting": "[1]; Rbp4-Cre mice, after ketamine", "result": "exhibited synchronous activity"},
      {"measurement": "spread of ketamine-rhythm across layers and regions", "setting": "[1]; Supplementary Note 2", "result": "did not spread beyond layer 5 neurons in retrosplenial cortex"},
      {"measurement": "oscillation in superficial neuropil, RSP vs neighboring visual cortex", "setting": "[1]; two-photon, cranial window, 80 mg/kg", "result": "observed the oscillation in RSP but not neighboring visual cortex"},
      {"measurement": "dose at which humans consistently report potent dissociation", "setting": "humans", "result": "2 to 3", "unit": "mg/kg"},
      {"measurement": "typical dose for anti-depressant effects", "setting": "humans", "result": "0.3 to 1", "unit": "mg/kg"},
      {"measurement": "tail-suspension escape responses", "setting": "mice [2]; ketamine >=25 mg/kg", "result": "similarly suppressed tail-suspension escape responses"},
      {"measurement": "tail suspension-escape behavior", "setting": "mice [2]; ketamine, both channel-knockouts vs wild-type", "result": "modestly-recovered tail suspension-escape behavior"},
      {"measurement": "resident-intruder social interactions", "setting": "mice [3]", "result": "modestly-recovered"},
      {"measurement": "open-field locomotion velocity", "setting": "mice [4]", "result": "decreased velocity"},
      {"measurement": "1-3 Hz RSP oscillation", "setting": "[5]; ketamine 13 mg/kg, listed as Ketamine", "result": "not 13 mg/kg"},
      {"measurement": "1-3 Hz RSP oscillation", "setting": "[5]; ketamine 25 mg/kg", "result": "rhythm at 25 mg/kg"},
      {"measurement": "affective paw-licking, hot plate", "setting": "mice [6]; 50 mg/kg ketamine, RSP Cre-virus in HCN1-KO mice", "result": "strikingly restored affective paw-licking"},
      {"measurement": "affective paw-licking, hot plate", "setting": "mice [6]; [9]", "result": "abolished affective paw-licking"},
      {"measurement": "reflexive paw-flicks, hot plate", "setting": "mice [6]; [9]", "result": "preserving reflexive paw-flicks"},
      {"measurement": "affective/emotional defensive behavior (paw-lick), hot plate", "setting": "mice [6]; ketamine 25 and 50 mg/kg", "result": "abolished affective/emotional"},
      {"measurement": "motivational defensive behavior (jump-to-escape), hot plate", "setting": "mice [6]; ketamine 25 and 50 mg/kg", "result": "abolished"},
      {"measurement": "reflexive responses (paw-flick), hot plate", "setting": "mice [6]; ketamine dose series up to 50 mg/kg", "result": "did not reduce reflexive responses"},
      {"measurement": "affective behavior", "setting": "mice [6]; ketamine, GRIN1 knockouts", "result": "without recovery of affective behavior"},
      {"measurement": "dissociation-like behavioral effects", "setting": "mice [6]; ketamine, HCN1 channels removed from retrosplenial cortex", "result": "selectively abolished both the ketamine-induced rhythm and dissociation-like behavioral effects; also recorded: did not fully elicit the dissociation-like behavioral effects"},
      {"measurement": "typical dose for anti-depressant effects", "setting": "mouse", "result": "3 to 10", "unit": "mg/kg"},
      {"measurement": "correlations of brain regions with RSP", "setting": "[7]; 8-12 min after 50 mg/kg ketamine i.p.", "result": "correlations with RSP were reduced"},
      {"measurement": "correlation of laterodorsal and anteroventral thalamus with each other and RSP", "setting": "[7]; subanesthetic ketamine", "result": "became more-strongly correlated to each other and RSP"},
      {"measurement": "rhythmicity of specific subcortical regions", "setting": "[7]; subanesthetic ketamine", "result": "exhibiting increased rhythmicity"},
      {"measurement": "magnitude of RSP rhythm on repeated days", "setting": "[8]; five consecutive days", "result": "exhibited similar magnitude across five consecutive days"},
      {"measurement": "1-3 Hz oscillation localized to retrosplenial cortex (RSP), widefield imaging", "setting": "[8]; i.p. injection, ketamine 50 mg/kg", "result": "a 1-3 Hz oscillation emerged in retrosplenial cortex (RSP), but not in any other cortical region"}
    ]}
  ]
}
